Tests used:
rat [1] = settings: Subchronic oral toxicity in rodents, sprague dawley, Gavage/Intubation, dose end: 94 day
mouse = settings: Carcinogenicity, swiss albino, Oral, Feed, dose end: 78 week
rat [2] = settings: Prenatal developmental toxicity study, sprague dawley, Oral, Gavage/Intubation, dose end: 19 GD
dog [3] = settings: Chronic toxicity, beagle, Oral, Feed, dose end: 104 week
rat [4] = settings: Combined chronic toxicity/carcinogenicity, sprague dawley, Oral, Feed, dose end: 104 week
rat [5] = settings: Multigenerational reproductive toxicity study, sprague dawley, Oral, Feed, dose end: 2 generation
dog [6] = settings: Chronic toxicity; beagle; Oral; Feed; dose end: 52 week; group: systemic; systemic / in life observation / body weight / body weight + systemic / organ weight / spleen / absolute + systemic / organ weight / spleen…
rabbit = settings: Prenatal developmental toxicity study; new zealand white; Oral; Gavage/Intubation; dose end: 19 GD; group: maternal; reproductive / reproductive performance / postimplantation loss / postimplantation loss + reproductive / reproductive performance / …
dog [7] = settings: Combined chronic toxicity/carcinogenicity, beagle, Oral, Feed, dose end: 104 week
[8] = group: cholinesterase, cholinesterase / cholinesterase / cholinesterase / plasma cholinesterase (che)
[9] = group: cholinesterase, cholinesterase / cholinesterase / cholinesterase / plasma cholinesterase (che) + cholinesterase / cholinesterase / cholinesterase / brain …
[10] = group: systemic, systemic / organ weight / liver / relative to body weight + systemic / organ weight / ovary / absolute + systemic / organ weight / ovary / …
[11] = group: cholinesterase, cholinesterase / cholinesterase / cholinesterase / erythrocyte cholinesterase (che) + cholinesterase / cholinesterase / cholinesterase / …
[12] = group: systemic, systemic / in life observation / body weight / body weight + systemic / in life observation / body weight / body weight gain + systemic / in…
[13] = group: developmental, systemic / in life observation / body weight / fetal weight
[14] = group: maternal, systemic / in life observation / mortality / mortality + systemic / pathology microscopic / liver / hepatitis + systemic / pathology …
[15] = group: systemic, systemic / pathology microscopic / intestine small / hypertrophy + systemic / pathology microscopic / stomach / hypertrophy + systemic / …
[16] = group: systemic, systemic / clinical chemistry / alkaline phosphatase (alp/alk) / alkaline phosphatase (alp/alk) + systemic / in life observation / body …
[17] = group: offspring, systemic / in life observation / body weight / offspring (pup) weight
[18] = group: offspring, systemic / in life observation / body weight / offspring (pup) weight + developmental / offspring survival late / viability index / …
[19] = group: parental, systemic / in life observation / body weight / body weight + systemic / in life observation / food consumption / food consumption + systemic…
[20] = group: systemic, systemic / pathology microscopic / intestine small / hypertrophy + systemic / in life observation / clinical signs / soft stools + systemic…

## O=P(O)(O)CCCl [Ethephon]
Rat [1]; [8]
  LEL: 50 mg/kg/day
  NEL: < 50 mg/kg/day
Rat [1]; [9]
  LOAEL: > 200 mg/kg/day
  NOAEL: ≥ 200 mg/kg/day
Rat [1]; [10]
  LEL: 200 mg/kg/day
  LOAEL: 200 mg/kg/day
  NEL: 100 mg/kg/day
  NOAEL: 100 mg/kg/day
mouse; [11]
  LEL: 156 mg/kg/day
  LOAEL: > 7750 mg/kg/day
  NEL: 15.5 mg/kg/day
  NOAEL: ≥ 7750 mg/kg/day
mouse; group: systemic, systemic / in life observation / body weight / body weight + systemic / in life observation / body weight / body weight gain
  LOAEL: 1630 mg/kg/day
mouse; [12]
  NEL: 156 mg/kg/day
  NOAEL: 156 mg/kg/day
mouse; group: systemic, systemic / in life observation / body weight / body weight + systemic / in life observation / body weight / body weight gain + systemic / …
  LEL: 1630 mg/kg/day
Rat [2]; [13]
  LEL: 1800 mg/kg/day
  LOAEL: 1800 mg/kg/day
  NEL: 600 mg/kg/day
  NOAEL: 600 mg/kg/day
Rat [2]; [14]
  LEL: 1800 mg/kg/day
  LOAEL: 1800 mg/kg/day
  NEL: 600 mg/kg/day
  NOAEL: 600 mg/kg/day
Dog [3]; group: cholinesterase, cholinesterase / cholinesterase / cholinesterase / erythrocyte cholinesterase (che)
  LOAEL: 7.5 mg/kg/day
Dog [3]; [8]
  LEL: 0.75 mg/kg/day
  NEL: < 0.75 mg/kg/day
Dog [3]; group: cholinesterase, cholinesterase / cholinesterase / cholinesterase / plasma cholinesterase (che) + cholinesterase / cholinesterase / cholinesterase / …
  NOAEL: 0.75 mg/kg/day
Dog [3]; group: systemic, systemic / pathology microscopic / intestine small / hypertrophy + systemic / pathology microscopic / stomach / hypertrophy
  LEL: 7.5 mg/kg/day
Dog [3]; [15]
  LOAEL: > 75 mg/kg/day
  NEL: 0.75 mg/kg/day
  NOAEL: ≥ 75 mg/kg/day
Rat [4]; [11]
  LEL: 150 mg/kg/day
  LOAEL: 150 mg/kg/day
  NEL: 15 mg/kg/day
  NOAEL: 15 mg/kg/day
Rat [4]; [16]
  LEL: 15 mg/kg/day
  LOAEL: > 150 mg/kg/day
  NEL: 1.5 mg/kg/day
  NOAEL: ≥ 150 mg/kg/day
Rat [5]; [17]
  LEL: 198 mg/kg/day
  LOAEL: 198 mg/kg/day
Rat [5]; [18]
  NEL: 19.8 mg/kg/day
  NOAEL: 19.8 mg/kg/day
Rat [5]; [19]
  LEL: 245 mg/kg/day
  LOAEL: 245 mg/kg/day
  NEL: 23.7 mg/kg/day
  NOAEL: 23.7 mg/kg/day
Dog [6]
  LEL: 52.1 mg/kg/day
  LOAEL: 52.1 mg/kg/day
  NEL: 28.5 mg/kg/day
  NOAEL: 28.5 mg/kg/day
rabbit
  LEL: 250 mg/kg/day
  LOAEL: 250 mg/kg/day
  NEL: 125 mg/kg/day
  NOAEL: 125 mg/kg/day
Dog [7]; [8]
  LEL: 0.75 mg/kg/day
  LOAEL: 0.75 mg/kg/day
  NEL: < 0.75 mg/kg/day
  NOAEL: < 0.75 mg/kg/day
Dog [7]; [20]
  LEL: 7.5 mg/kg/day
  LOAEL: > 37.5 mg/kg/day
  NEL: 0.75 mg/kg/day
  NOAEL: ≥ 37.5 mg/kg/day

From EPA's ToxRefDB 2
